In patent US5319097A, “Pharmaceutical agents” (Imperial Chemical Industries PLC, priority 1990, dated 1994):
Where two headings read alike, the source gives them in different places.

Columns and labels:
[1] = Acute toxicity study, rats; conditions: rat, in vivo
Source text: (§1) Acute toxicity studies have been conducted on compound 1 in order to obtain LD50 values.

[2] = Recent clinical trials, oral administration to asthmatic patients; format: in vivo; conditions: administered orally to asthmatic patients
Source text: This ability of compound 1 to be effective when administered orally is unusual and highly desirable.

[3] = Solubility in water; format: physicochemical
[4] = Acute toxicity study, mice; conditions: mouse, in vivo
Source text: as §1

[5] = Physical stability of the physical forms / conversion between forms; format: physicochemical
[6] = Comparison of bioavailability in dogs (compositions with polyvinylpyrrolidone and forms A, B and X); format: in vivo; conditions: 20 mg tablet with polyvinylpyrrolidone
Source text: During each study period, blood samples were periodically obtained from each animal and the concentration of compound 1 determined.

[7] = Bioavailability of physical forms and compositions (general statement); conditions: in vivo

SMILES	Area under curve [6]	Maximum concentration [6]	bioavailability [7]	Half-life [6]	physical stability [5]	further results
COc1cc(C(=O)NS(=O)(=O)c2ccccc2C)ccc1Cc1cn(C)c2ccc(NC(=O)OC3CCCC3)cc12 [Compound 1, N-[4-[5-(cyclopentyloxycarbonyl)amino-l-methylindol-3-ylmethyl]-3-methoxybenzoyl]-2-methylbenzenesulphonamide]	–	–	–	–	–	LD50 [1]: > 500 mg/kg; effectiveness in the treatment of asthma [2]: effective; solubility in water [3]: relatively poor solubility; LD50 [4]: > 500 mg/kg
COc1cc(C(=O)NS(=O)(=O)c2ccccc2C)ccc1Cc1cn(C)c2ccc(NC(=O)OC3CCCC3)cc12 [Form A]	4028 ng·h/mL	1.004 µg/mL	relatively good bioavailability	–	–	conversion of form A into form B ([5]; in compositions, high relative humidity and elevated temperatures): conversion of form A into form B has been found to occur; stability of form A in the compositions ([5]; in the compositions according to the invention): acceptably stable; conversion into form B ([5]; in the presence of water): tends to convert into form B; Half-life ([6]; dog, blood, po, 20 mg, read-out: Half-life (converted)): 5.4 h
COc1cc(C(=O)NS(=O)(=O)c2ccccc2C)ccc1Cc1cn(C)c2ccc(NC(=O)OC3CCCC3)cc12 [Form B, N-[4-[5-(cyclopentyloxycarbonyl)amino-l-methylindol-3-yl-methyl]-3-methoxybenzoyl]-2-methylbenzenesulphonamide]	773 ng·h/mL	0.105 µg/mL	–	3.524 h	–	temperature above which form B loses water [5]: above 60 °C
COc1cc(C(=O)NS(=O)(=O)c2ccccc2C)ccc1Cc1cn(C)c2ccc(NC(=O)OC3CCCC3)cc12 [Form X]	1307 ng·h/mL	0.314 µg/mL	relatively poor bioavailability	3.590 h	physically stable	–
COc1cc(C(=O)NS(=O)(=O)c2ccccc2C)ccc1Cc1cn(C)c2ccc(NC(=O)OC3CCCC3)cc12 [forms B]	–	–	relatively poor bioavailability	–	physically stable	–
